Data on 8 compounds can be found in PMC10610545, “Preclinical Evaluation of an Imidazole-Linked Heterocycle for Alzheimer’s Disease” (Pharmaceutics, 2023).

Counter-ions that a name gives are not always drawn.

Data set [1] deals with imidazoline I2 receptors (I2-IR). As to the kind of experiment: Competition binding against [3H]2-BFI, membranes from post-mortem human frontal cortex. As to conditions: for Selectivity I2/α2: antilog (pKi I2-IR − pKi α2-AR); for [3H]-2-BFI I2 pKi (One Site): monophasic fit; for [3H]-2-BFI I2 pKi (Two Sites), high affinity (pKiH) / [3H]-2-BFI I2 pKi (Two Sites), low affinity (pKiL): two-site model; for [3H]-2-BFI I2 pKi (Two Sites), high affinity (pKiH): high-affinity site; for [3H]-2-BFI I2 pKi (Two Sites), low affinity (pKiL): low-affinity site. The text has this: (§1) The inhibition constant (Ki) for each compound was obtained and is expressed as the corresponding pKi. The selectivity for these two receptors was expressed by the I2/α2 index, calculated as the antilogarithm of the […] between pKi values for I2-IR and pKi values for α2-AR.
(§2) Preparation of cellular membranes.
(§3) Human brain samples were obtained at autopsy in the Basque Institute of Legal Medicine, Bilbao, Spain. Samples from the prefrontal cortex (Brodmann’s area 9) were dissected at the time of autopsy and immediately stored at -70 °C until assay. The study was developed in compliance with policies of research and ethical review boards for postmortem brain studies.
(§4) To obtain cellular membranes (P2 fraction) the different samples were homogenized using an ultraturrax in 10 volumes of homogenization buffer (0.25 M sucrose, 5 mM Tris–HCl, pH 7.4).
(§5) The crude homogenate was centrifuged for 5 min at 1000 g (4 °C) and the supernatant was centrifuged again for 10 min at 40,000 g (4 °C). The resultant pellet was washed twice in 5 volumes of homogenization buffer and recentrifuged in similar conditions. Protein content was measured according to the method of Bradford using BSA as standard.
(§6) Competition Binding Assays.
(§7) The pharmacological activity of the compounds was evaluated through competition binding studies against the I2-IR selective radioligand [3H]2-BFI or the α2-adrenergic receptor selective radioligand [3H]RX821002. Specific binding was measured in 0.25 mL aliquots (50 mM Tris-HCl, pH 7.5) containing 100 µg of membranes, which were incubated in 96-well plates either with […]
(§8) Incubations were terminated by separating free ligand from bound ligand by rapid filtration […]
(§9) counted for radioactivity by liquid scintillation spectrometry using a MicroBeta TriLux counter (PerkinElmer). Specific binding was determined and plotted as a function of the compound concentration. Nonspecific binding was determined in the presence of idazoxan (10–5 M), a compound with well stablished affinity for I2-IR and α2-adrenergic receptors, in [3H]2-BFI and [3H]RX821002 assays. To obtain the inhibition constant (Ki) analyses of competition experiments were performed by nonlinear regression using the GraphPad Prism program. Ki values were normalized to pKi values. I2-IR/α2 selectivity index was calculated as the antilogarithm of the difference between pKi values for I2-IR and pKi values for α2-ARs.

In data set [2] the target is α2-adrenergic receptor (α2-AR). The data set is described as follows: Competition binding against [3H]RX821002, membranes from post-mortem human frontal cortex.
Source text: as §1, §2, §3, §4, §5, §6, §7, §8, §9

Data set [3] is described as follows: PAMPA-BBB permeation assay. It is filed as in vitro ADME, porcine. Particulars: pig, PBS/EtOH (70:30), mean ± SD, read-out: Permeability Pe. The procedure: In vitro Blood-Brain Barrier Permeation Assay
To evaluate the brain penetration of the different compounds, a parallel artificial membrane permeation assay for blood-brain barrier was used, following the method described by Di et al.1 The in vitro permeability (Pe) of fourteen commercial drugs (see Table S1) through lipid extract of porcine brain membrane together with the test compounds were determined. Commercial drugs and assayed compounds were tested using a mixture of PBS:ETOH (70:30). Assay validation was made by comparing the experimental permeability with the reported values of the commercial drugs by bibliography and lineal correlation between experimental and reported permeability of the fourteen commercial drugs using the parallel artificial membrane permeation […]
From this equation and taking into account the limits established by Di et al. for BBB permeation, we established the ranges of permeability […]
predictive penetration in the CNS used as references.
1 Di, L.; Kerns, E. H.; Fan, K.; McConnell, O. J.; and Carter, G. T. High throughput artificial membrane permeability assay for blood-brain barrier.

Turning to `c1ccc(-c2ncc3cc(-n4ccnc4)ccc3n2)cc1` [CR4056], in data set [1], the “Selectivity I2/α2” value is 1995 and the “[3H]-2-BFI I2 pKi (One Site)” value turned out to be 5.95 ± 0.11.
Consider `c1ccc2oc(C3=NCCN3)cc2c1` [Compound 2-BFI, 2-(2-benzofuranyl)-2-imidazoline], for which, in data set [1], the “Selectivity I2/α2” value is 5370; the “[3H]-2-BFI I2 pKi (One Site)” value turned out to be 8.31 ± 0.13; the “[3H]-2-BFI I2 pKi (Two Sites), high affinity (pKiH)” value (shortened to “[3H]-2-BFI I2 pKi … (pKiH)”) is given as 9.08 ± 0.22; the “[3H]-2-BFI I2 pKi (Two Sites), low affinity (pKiL)” value (from here on “[3H]-2-BFI I2 pKi … (pKiL)”) turned out to be 7.15 ± 0.31. The Ki in data set [1] (corresponds to pKiH, read-out: Ki of the high-affinity I2 site) worked out at 1 nM. In addition, the “[3H]-RX821002 α2 pKi” value in data set [2] was found to be 4.58 ± 0.22.
`c1ccc2c(c1)OCC(C1=NCCN1)O2` (stereo not drawn) [Idazoxan]: in data set [1], the “[3H]-2-BFI I2 pKi (One Site)” value is reported as 7.41 ± 0.63; the “[3H]-2-BFI I2 pKi … (pKiH)” value came out at 7.87 ± 0.74; the “[3H]-2-BFI I2 pKi … (pKiL)” value stood at 5.76 ± 0.57. The “[3H]-RX821002 α2 pKi” value in data set [2] was 7.92 ± 0.07.
Regarding `Cl.c1ccc2[nH]c(-n3ccnc3)cc2c1` [LSL29, 2-Imidazol-1-yl-1H-indole hydrochloride], the Papp in data set [3] was 10.8 ± 0.4 ×10⁻⁶ cm/s. In data set [1], the “[3H]-2-BFI I2 pKi (One Site)” value is listed as 4.57 ± 0.23; the “[3H]-2-BFI I2 pKi … (pKiH)” value is 8.54 ± 0.71; the “[3H]-2-BFI I2 pKi … (pKiL)” value turned out to be 4.09 ± 0.22. In data set [2], the “[3H]-RX821002 α2 pKi” value was 4.99 ± 0.18.
As to `Cl.c1ccc2nc(-n3ccnc3)ccc2c1` [LSL35, 1-(Quinoline-2-yl)-1H-imidazole hydrochloride], the Papp in data set [3] was 16.2 ± 0.9 ×10⁻⁶ cm/s. Moreover, the “[3H]-2-BFI I2 pKi (One Site)” value in data set [1] is on record as 5.49 ± 0.14. In data set [2], the “[3H]-RX821002 α2 pKi” value is reported as 5.24 ± 0.26.
Regarding `c1ccc2c(c1)OCC(c1ncc[nH]1)O2` (stereo not drawn) [LSL39, 2-(2,3-Dihydrobenzo[1, 4]dioxin-2-yl)-1H-imidazole hydrochloride], in data set [1], the “[3H]-2-BFI I2 pKi (One Site)” value was 6.10 ± 0.25. Further, the “[3H]-RX821002 α2 pKi” value in data set [2] worked out at 3.97 ± 0.25.
In the case of `Cl.c1ccc2nc(-c3ncc[nH]3)ccc2c1` [LSL42, 2-(Quinoline-2-yl)-1H-imidazole hydrochloride], in data set [3], the Papp is 5.8 ± 0.2 ×10⁻⁶ cm/s. Further, in data set [1], the “[3H]-2-BFI I2 pKi (One Site)” value was found to be 5.24 ± 0.12. Moreover, in data set [2], the “[3H]-RX821002 α2 pKi” value is 5.32 ± 0.24.
With `C(=C\c1ccccc1)/C1=NCCN1` [Tracizoline, reference compound], the “pKi (exp) I2” value in data set [1] (Table S2, new ligands and known I2-IR ligands) is listed as 7.580. Further, the “pKi (exp) α2” value in data set [2] (Table S3, new ligands and known I2-IR ligands) is 4.330.
